{"source": "patent US5294611A", "about": "“Angiotensin II receptor blocking 2,3,6 substituted quinazolinones” (American Cyanamid Company, priority 1993, dated 1994)", "system": "Angiotensin II (AII) vasopressor response", "assay": "AII Challenge: antagonism of angiotensin II vasopressor response in conscious spontaneously hypertensive rats", "format": "in vivo, rat (male okamoto-Aoki SHR)", "details": "for inhibition in vivo at 3 mg/kg: Rattus norvegicus, read-out: Inhibition; for Change: single SHR", "how_it_was_run": "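Conscious male SHR (16–20 weeks, ~330 g) cannulated under local procaine, blood pressure recorded via transducer. Angiotensin II (human) 0.05 and 0.1 ug/kg i.v. given before and after test compound dosed i.v., i.p. or orally; response measured as rise in systolic pressure (mmHg).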", "note": "Where two headings read alike, the source gives them in different places."}
{"smiles": "CCCCc1nc2ccc([C@H]3[C@@H]4C(=O)CC[C@@H]4ON3Cc3ccccc3)cc2c(=O)n1Cc1ccc(-c2ccccc2-c2nnn[nH]2)cc1", "note": "(relative stereo) [Example 55]", "values": [{"measurement": "inhibition in vivo at 3 mg/kg", "setting": "iv, 0.5 h, SHR n=2, 3 mg/kg I.V., AII 0.05 mcg/kg IV, 30 min post dose", "value": 97, "unit": "%"}, {"measurement": "inhibition in vivo at 3 mg/kg", "setting": "iv, 0.5 h, SHR n=2, 3 mg/kg I.V., AII 0.1 mcg/kg IV, 30 min post dose", "value": 95, "unit": "%"}, {"measurement": "inhibition in vivo at 3 mg/kg", "setting": "iv, 1 h, SHR n=2, 3 mg/kg I.V., AII 0.05 mcg/kg IV, 60 min post dose", "value": 100, "unit": "%"}, {"measurement": "inhibition in vivo at 3 mg/kg", "setting": "iv, 1 h, SHR n=2, 3 mg/kg I.V., AII 0.1 mcg/kg IV, 60 min post dose", "value": 95, "unit": "%"}, {"measurement": "inhibition in vivo at 3 mg/kg", "setting": "iv, 2 h, SHR n=2, 3 mg/kg I.V., AII 0.05 mcg/kg IV, 120 min post dose", "value": 97, "unit": "%"}, {"measurement": "inhibition in vivo at 3 mg/kg", "setting": "iv, 2 h, SHR n=2, 3 mg/kg I.V., AII 0.1 mcg/kg IV, 120 min post dose", "value": 94, "unit": "%"}, {"measurement": "inhibition in vivo at 3 mg/kg", "setting": "iv, 3 h, SHR n=2, 3 mg/kg I.V., AII 0.1 mcg/kg IV, 180 min post dose", "value": 77, "unit": "%"}, {"measurement": "inhibition in vivo at 3 mg/kg", "setting": "iv, 4 h, SHR n=2, 3 mg/kg I.V., AII 0.05 mcg/kg IV, 240 min post dose", "value": 89, "unit": "%"}, {"measurement": "inhibition in vivo at 3 mg/kg", "setting": "iv, 4 h", "value": 82, "unit": "%"}, {"measurement": "inhibition in vivo at 3 mg/kg", "setting": "iv, 5 h, SHR n=2, 3 mg/kg I.V., AII 0.05 mcg/kg IV, 300 min post dose", "value": 61, "unit": "%"}, {"measurement": "inhibition in vivo at 3 mg/kg", "setting": "iv, 5 h, SHR n=2, 3 mg/kg I.V., AII 0.1 mcg/kg IV, 300 min post dose", "value": 50, "unit": "%"}, {"measurement": "inhibition in vivo at 3 mg/kg", "setting": "iv, […], SHR n=2, 3 mg/kg I.V., AII 0.05 mcg/kg IV, 90 min post dose", "value": 89, "unit": "%"}, {"measurement": "inhibition in vivo at 3 mg/kg", "setting": "iv, […], SHR n=2, 3 mg/kg I.V., AII 0.1 mcg/kg IV, 90 min post dose", "value": 91, "unit": "%"}, {"measurement": "inhibition in vivo at 3 mg/kg", "setting": "po, 0.5 h, SHR n=2, 3 mg/kg P.O., AII 0.05 mcg/kg IV, 30 min post dose", "value": 21, "unit": "%"}, {"measurement": "inhibition in vivo at 3 mg/kg", "setting": "po, 0.5 h, SHR n=2, 3 mg/kg P.O., AII 0.1 mcg/kg IV, 30 min post dose", "value": 17, "unit": "%"}, {"measurement": "inhibition in vivo at 3 mg/kg", "setting": "po, 1 h, SHR n=2, 3 mg/kg P.O., AII 0.05 mcg/kg IV, 60 min post dose", "value": 7, "unit": "%"}, {"measurement": "inhibition in vivo at 3 mg/kg", "setting": "po, 1 h, SHR n=2, 3 mg/kg P.O., AII 0.1 mcg/kg IV, 60 min post dose", "value": 11, "unit": "%"}, {"measurement": "inhibition in vivo at 3 mg/kg", "setting": "po, 2 h, SHR n=2, 3 mg/kg P.O., AII 0.05 mcg/kg IV, 120 min post dose", "value": 21, "unit": "%"}, {"measurement": "inhibition in vivo at 3 mg/kg", "setting": "po, 2 h, SHR n=2, 3 mg/kg P.O., AII 0.1 mcg/kg IV, 120 min post dose", "value": 39, "unit": "%"}, {"measurement": "inhibition in vivo at 3 mg/kg", "setting": "po, 3 h, SHR n=2, 3 mg/kg P.O., AII 0.05 mcg/kg IV, 180 min post dose", "value": 14, "unit": "%"}, {"measurement": "inhibition in vivo at 3 mg/kg", "setting": "po, 3 h, SHR n=2, 3 mg/kg P.O., AII 0.1 mcg/kg IV, 180 min post dose", "value": 28, "unit": "%"}, {"measurement": "inhibition in vivo at 3 mg/kg", "setting": "po, […], SHR n=2, 3 mg/kg P.O., AII 0.05 mcg/kg IV, 90 min post dose", "value": 14, "unit": "%"}, {"measurement": "inhibition in vivo at 3 mg/kg", "setting": "po, […], SHR n=2, 3 mg/kg P.O., AII 0.1 mcg/kg IV, 90 min post dose", "value": 17, "unit": "%"}, {"measurement": "Average Change", "setting": "SHR n=2, 3 mg/kg I.V., AII 0.05 mcg/kg IV, 30 min post dose", "value": 1.5, "unit": "mmHg"}, {"measurement": "Average Change", "setting": "SHR n=2, 3 mg/kg I.V., AII 0.05 mcg/kg IV, 60 min post dose", "value": 0, "unit": "mmHg"}, {"measurement": "Average Change", "setting": "SHR n=2, 3 mg/kg I.V., AII 0.05 mcg/kg IV, 90 min post dose", "value": 5, "unit": "mmHg"}, {"measurement": "Average Change", "setting": "SHR n=2, 3 mg/kg I.V., AII 0.05 mcg/kg IV, 120 min post dose", "value": 1.5, "unit": "mmHg"}, {"measurement": "Average Change", "setting": "SHR n=2, 3 mg/kg I.V., AII 0.05 mcg/kg IV, 180 min post dose", "value": 2.5, "unit": "mmHg"}, {"measurement": "Average Change", "setting": "SHR n=2, 3 mg/kg I.V., AII 0.05 mcg/kg IV, 240 min post dose", "value": 5, "unit": "mmHg"}, {"measurement": "Average Change", "setting": "SHR n=2, 3 mg/kg I.V., AII 0.05 mcg/kg IV, 300 min post dose", "value": 17.5, "unit": "mmHg"}, {"measurement": "Average Change", "setting": "SHR n=2, 3 mg/kg I.V., AII 0.1 mcg/kg IV, 30 min post dose", "value": 2.5, "unit": "mmHg"}, {"measurement": "Average Change", "setting": "SHR n=2, 3 mg/kg I.V., AII 0.1 mcg/kg IV, 60 min post dose", "value": 2.5, "unit": "mmHg"}, {"measurement": "Average Change", "setting": "SHR n=2, 3 mg/kg I.V., AII 0.1 mcg/kg IV, 90 min post dose", "value": 5, "unit": "mmHg"}, {"measurement": "Average Change", "setting": "SHR n=2, 3 mg/kg I.V., AII 0.1 mcg/kg IV, 120 min post dose", "value": 3.5, "unit": "mmHg"}, {"measurement": "Average Change", "setting": "SHR n=2, 3 mg/kg I.V., AII 0.1 mcg/kg IV, 180 min post dose", "value": 12.5, "unit": "mmHg"}, {"measurement": "Average Change", "setting": "SHR n=2, 3 mg/kg I.V., AII 0.1 mcg/kg IV, 240 min post dose", "value": 10, "unit": "mmHg"}, {"measurement": "Average Change", "setting": "SHR n=2, 3 mg/kg I.V., AII 0.1 mcg/kg IV, 300 min post dose", "value": 27.5, "unit": "mmHg"}, {"measurement": "Average Change", "setting": "SHR n=2, 3 mg/kg P.O., AII 0.05 mcg/kg IV, 30 min post dose", "value": 27.5, "unit": "mmHg"}, {"measurement": "Average Change", "setting": "SHR n=2, 3 mg/kg P.O., AII 0.05 mcg/kg IV, 60 min post dose", "value": 32.5, "unit": "mmHg"}, {"measurement": "Average Change", "setting": "SHR n=2, 3 mg/kg P.O., AII 0.05 mcg/kg IV, 90 min post dose", "value": 30, "unit": "mmHg"}, {"measurement": "Average Change", "setting": "SHR n=2, 3 mg/kg P.O., AII 0.05 mcg/kg IV, 120 min post dose", "value": 27.5, "unit": "mmHg"}, {"measurement": "Average Change", "setting": "SHR n=2, 3 mg/kg P.O., AII 0.05 mcg/kg IV, 180 min post dose", "value": 30, "unit": "mmHg"}, {"measurement": "Average Change", "setting": "SHR n=2, 3 mg/kg P.O., AII 0.1 mcg/kg IV, 30 min post dose", "value": 37.5, "unit": "mmHg"}, {"measurement": "Average Change", "setting": "SHR n=2, 3 mg/kg P.O., AII 0.1 mcg/kg IV, 60 min post dose", "value": 40, "unit": "mmHg"}, {"measurement": "Average Change", "setting": "SHR n=2, 3 mg/kg P.O., AII 0.1 mcg/kg IV, 90 min post dose", "value": 37.5, "unit": "mmHg"}, {"measurement": "Average Change", "setting": "SHR n=2, 3 mg/kg P.O., AII 0.1 mcg/kg IV, 120 min post dose", "value": 27.5, "unit": "mmHg"}, {"measurement": "Average Change", "setting": "SHR n=2, 3 mg/kg P.O., AII 0.1 mcg/kg IV, 180 min post dose", "value": 32.5, "unit": "mmHg"}, {"measurement": "Change", "setting": "3 mg/kg I.V., AII 0.05 mcg/kg IV, 60 min post dose", "value": 0, "unit": "mmHg"}, {"measurement": "Change", "setting": "3 mg/kg I.V., AII 0.05 mcg/kg IV, 90 min post dose", "value": 5, "unit": "mmHg"}, {"measurement": "Change", "setting": "3 mg/kg I.V., AII 0.05 mcg/kg IV, 240 min post dose", "value": 5, "unit": "mmHg"}, {"measurement": "Change", "setting": "3 mg/kg I.V., AII 0.1 mcg/kg IV, 90 min post dose", "value": 5, "unit": "mmHg"}, {"measurement": "Change", "setting": "3 mg/kg I.V., AII 0.1 mcg/kg IV, 240 min post dose", "value": 10, "unit": "mmHg"}, {"measurement": "Change", "setting": "3 mg/kg P.O., AII 0.1 mcg/kg IV, 60 min post dose", "value": 40, "unit": "mmHg"}]}
